Read-outs that look alike come from different tables or passages of the source.
Legend:
[1] = test system: P. falciparum Dd2 (PfLuc) line expressing firefly luciferase, asexual blood stage; experiment: microbe, parasite or virus in culture; type: cell-based, Plasmodium falciparum; settings: Plasmodium falciparum
P. falciparum Dd2 = experiment: SYBR green I asexual blood stage proliferation assay (96 h); type: cell-based, Plasmodium falciparum; settings: Plasmodium falciparum, DD2, 11-pt dose response, 96hr
[2] = DD2, read-out: P. falciparum Luciferase ABS 11-pt Reconfirmation Dose Response (48hr): IC50, 11-pt dose response, 48hr
[3] = DD2, 8-pt dose response, 96hr, read-out: P. falciparum Luciferase ABS 8-pt Reconfirmation Dose Response (96hr): IC50
[4] = DD2, 8-pt dose response, 96hr, read-out: P. falciparum Luciferase ABS 8-pt Reconfirmation Dose Response (96hr): Maximum inhibition (%)
[5] = DD2, 11-pt dose response, 48hr, read-out: P. falciparum Luciferase ABS 11-pt Reconfirmation Dose Response (48hr): Maximum inhibition (%)
[6] = DD2, 11-pt dose response, 96hr, read-out: P. falciparum Luciferase ABS 11-pt Reconfirmation Dose Response (96hr): IC50
[7] = DD2, 11-pt dose response, 96hr, read-out: P. falciparum Luciferase ABS 11-pt Reconfirmation Dose Response (96hr): Maximum inhibition (%)
[8] = read-out: P. falciparum Sybr Green I ABS 11-pt Reconfirmation Dose Response (96hr): IC50
[9] = read-out: P. falciparum Sybr Green I ABS 11-pt Reconfirmation Dose Response (96hr): Maximum inhibition (%)
[10] = DD2, read-out: CDD P. falciparum Luciferase ABS 11-pt Reconfirmation Dose Response (48hr): IC50 (μM), 11-pt dose response, 48hr
[11] = DD2, 8-pt dose response, 96hr, read-out: CDD P. falciparum Luciferase ABS 8-pt Reconfirmation Dose Response (96hr): IC50
[12] = DD2, 8-pt dose response, 96hr, read-out: CDD P. falciparum Luciferase ABS 8-pt Reconfirmation Dose Response (96hr): Maximum inhibition (%)
[13] = DD2, 11-pt dose response, 48hr, read-out: CDD P. falciparum Luciferase ABS 11-pt Reconfirmation Dose Response (48hr): Maximum inhibition (%)
[14] = DD2, 11-pt dose response, 96hr, read-out: CDD P. falciparum Luciferase ABS 11-pt Reconfirmation Dose Response (96hr): IC50
[15] = DD2, 11-pt dose response, 96hr, read-out: CDD P. falciparum Luciferase ABS 11-pt Reconfirmation Dose Response (96hr): Maximum inhibition (%)
[16] = Sybr Green I, read-out: CDD P. falciparum Sybr Green I ABS 11-pt Reconfirmation Dose Response (96hr): IC50
[17] = Sybr Green I, read-out: CDD P. falciparum Sybr Green I ABS 11-pt Reconfirmation Dose Response (96hr): Maximum inhibition (%)
[18] = 96 h incubation, Dd2 luciferase, read-out: 96 hour Pfluc IC50

Row | Structure (SMILES) | IC50 [1, 2] [µM] | IC50 [1, 3] [µM] | Emax [1, 4] [%] | Emax [1, 5] [%] | IC50 [1, 6] [µM] | Emax [1, 7] [%] | IC50 (P. falciparum Dd2; [8]) [µM] | Emax (P. falciparum Dd2; [9]) [%] | IC50 [1, 10] [µM] | IC50 [1, 11] [µM] | Emax [1, 12] [%] | Emax [1, 13] [%] | IC50 [1, 14] [µM] | Emax [1, 15] [%] | IC50 (P. falciparum Dd2; [16]) [µM] | Emax (P. falciparum Dd2; [17]) [%] | IC50 [1, 18] [µM]
1 | CS(=O)(=O)CCCNC1(c2cccc(Cl)c2)CCCC1 [DDD01078792] | > 12.5 | 1.66 | 85 | 68.8 | 3.02 | 88 | > 4.16 | 73.6 | – | – | – | – | – | – | – | – | –
2 | Cc1cccc(C2(NCCCS(C)(=O)=O)CCCC2)c1 [DDD01078804] | – | – | – | – | – | – | – | – | 12.1 | 0.66 | 85 | 56.6 | 1.93 | 85.9 | 6.57 | 74.2 | –
3 | Cc1cn2c(n1)C(CNCc1ccc(C)s1)CCC2 (centres unmarked) [DDD01079169] | – | – | – | – | – | – | – | – | 1.64 | 0.63 | 93.4 | 93.3 | 0.471 | 100 | 2.25 | 83.8 | –
4 | O=C(CN1CCCC(c2ccn[nH]2)C1)Nc1nc2c(s1)CCC2 (centres unmarked) [DDD01079497] | – | – | – | – | – | – | – | – | 0.618 | 0.22 | 90.5 | – | 0.451 | 97.6 | 0.192 | 73.2 | –
5 | Cc1cc(C2CCCN(CC(=O)Nc3nc4c(s3)CCC4)C2)n[nH]1 (centres unmarked) [DDD01079504] | – | – | – | – | – | – | – | – | 0.456 | 0.28 | 81.5 | 84.9 | 0.388 | 97.8 | 0.179 | 71.3 | –
6 | Cc1cc(Br)cnc1NCCN1CCC(N(C)C)CC1 [DDD01079597] | – | – | – | – | – | – | – | – | 7.01 | 0.51 | 92.4 | 87.3 | 1.15 | 99.5 | 3.19 | 92.7 | –
7 | COc1cccc(CNC(CN2CCN(C)CC2)c2ccccc2)c1 (centres unmarked) [DDD01079897] | – | – | – | – | – | – | – | – | 2.58 | 0.38 | 91 | 83.2 | 0.79 | 98.1 | 1.65 | 94.5 | –
8 | Cc1ccc(CNC(CN2CCN(C)CC2)c2ccccc2)cc1 (centres unmarked) [DDD01079898] | – | – | – | – | – | – | – | – | 4.31 | 0.26 | 91.3 | 88.2 | 1.21 | 98.8 | 1.36 | 95.9 | –
9 | Cc1cccc(CNC(CN2CCN(C)CC2)c2ccccc2)c1 (centres unmarked) [DDD01079901] | – | – | – | – | – | – | – | – | 2.73 | 0.24 | 91.5 | 89.2 | 0.53 | 99 | 0.449 | 98.3 | –
10 | NCC1(c2cccc(Br)c2)CCOCC1 [DDD01079955] | – | – | – | – | – | – | – | – | 4.79 | 0.84 | 87.3 | 58.8 | 1.63 | 85.9 | > 4.16 | 76.8 | –
11 | COCCCN1CCCN(C(C)C(=O)Nc2cccc(I)c2)CC1 (centres unmarked) [DDD01080015] | – | – | – | – | – | – | – | – | 2.64 | 0.87 | 92 | 71.5 | 1.94 | 94.8 | 10.6 | 77.7 | –
12 | c1cnn(C[C@@H]2C[C@@H]3CN(CC4CC4)CC[C@@H]3N2c2nccs2)c1 [DDD01081619] | 2.56 | 1.48 | 94.2 | – | 1.87 | 99.5 | 2.7 | 73.6 | – | – | – | – | – | – | – | – | –
13 | Cc1ccc(CNC2CC3(CCN(CCO)CC3)c3ccccc32)s1 (centres unmarked) [DDD01082017] | – | – | – | – | – | – | – | – | 3.82 | 0.41 | 91 | 80.4 | 1.07 | 98 | 2.9 | 89.2 | –
14 | COCCN1CCC2(CC1)CC(NCc1ccc(C)s1)c1ccccc12 (centres unmarked) [DDD01082023] | – | – | – | – | – | – | – | – | 7.58 | 0.63 | 90 | – | 1.55 | 96.4 | 2.42 | 82.4 | –
15 | Cc1cc(C)cc(CN2C[C@H]3COC[C@H](N4CCN(C)CC4)[C@H]3C2)c1 [DDD01083756] | – | – | – | – | – | – | – | – | 2.44 | 0.23 | – | 79.9 | 0.791 | 97.2 | 1.08 | – | –
16 | CC(C)N(C)Cc1cnc2n1CCN(C(=O)NC1CCCC1)C2 [DDD01085014] | – | – | – | – | – | – | – | – | > 12.5 | 0.4 | 87.1 | 50.3 | 0.478 | 91 | 3.09 | 52.8 | –
17 | Fc1cnc(N2CCCC3(CCN(Cc4ccsc4)C3)C2)nc1 (centres unmarked) [DDD01085292] | – | – | – | – | – | – | – | – | 2.31 | 1 | 83.3 | 68.3 | 1.53 | 92.4 | > 4.16 | 70.7 | –
18 | c1cc(-c2n[nH]cc2-c2ccnc(N3CCCCCC3)n2)ccn1 [DDD01235864] | – | – | – | – | – | – | – | – | > 4.16 | 0.00697 | 93.5 | 62.2 | 0.0308 | 93.5 | 0.00564 | – | 0.03
19 | CN(CCO)C[C@@H]1CN(C2CCN(c3ccccc3Cl)CC2)C[C@@H]1CO [DDD01243670] | – | – | – | – | – | – | – | – | 0.887 | 0.4 | 94.9 | 96.9 | 0.653 | 99.6 | 1.34 | 86.9 | –
20 | Oc1cccc2ccc(CN3CCC4(CCNCC4)C3)nc12 [DDD01243747] | – | – | – | – | – | – | – | – | 0.642 | 0.76 | 92 | 97.9 | 0.231 | 101 | 10.8 | 75.2 | –
21 | Cn1cc(CN2CCCC(CCc3ccccc3C(F)(F)F)C2)cn1 (centres unmarked) [DDD01243772] | 4.26 | 1.59 | 82.8 | 66.1 | 4.34 | – | 4.89 | 62 | – | – | – | – | – | – | – | – | –
22 | NC1CCCCN(Cc2cc(-c3ccccc3OC(F)(F)F)no2)C1 (centres unmarked) [DDD01244394] | > 4.16 | 1.45 | 88.9 | 84.8 | > 1.39 | 97.5 | > 4.16 | 69.6 | – | – | – | – | – | – | – | – | –
23 | CC1CCCCN1C(=O)c1coc(COc2cccc3cnccc23)n1 (centres unmarked) [DDD01245028] | – | – | – | – | – | – | – | – | 0.751 | 0.61 | 94 | 97 | 0.469 | 99.8 | 0.568 | 97.7 | –
24 | CCN(Cc1c(F)cccc1Cl)c1cc(C2CCNCC2)nc(C)n1 [DDD01245231] | – | – | – | – | – | – | – | – | 0.763 | 0.55 | 91.3 | 99.4 | 0.504 | 99.8 | 2.5 | 81.1 | –
25 | CCC[C@H]1CN(S(=O)(=O)c2ccc(-c3c(C)noc3C)s2)C[C@@H]1N [DDD01245572] | – | – | – | – | – | – | – | – | > 12.5 | 1 | 81.3 | 19 | 2.92 | 74.1 | 5.57 | 55.3 | –
26 | Clc1ccccc1C1(c2ccnc(C3CCCC3)n2)CCNCC1 [DDD01245610] | – | – | – | – | – | – | – | – | 4.17 | 0.49 | 87.3 | 92.8 | 0.755 | 98.9 | 3.55 | 76.4 | 0.76
27 | NCC1Cc2cc(-c3nccc(N4CCC(O)CC4)n3)cc(Cl)c2O1 (centres unmarked) [DDD01245918] | – | – | – | – | – | – | – | – | 2.64 | 0.55 | 92 | 75.2 | 1.96 | 96.7 | 4.21 | 83.9 | –
28 | CCCOc1ccc2ccccc2c1CN1CC[C@@]2(O)CCNC[C@H]2C1 [DDD01246029] | – | – | – | – | – | – | – | – | 2.85 | 1 | – | 96.3 | 1.42 | 98.8 | 2.76 | 96.5 | –
29 | Clc1ccccc1C1(c2ccnc(C3CC3)n2)CCNCC1 [DDD01246037] | – | – | – | – | – | – | – | – | 7.25 | 0.61 | 89.2 | – | 1.02 | 93.1 | 4.41 | 78 | –
30 | c1ccc(-c2nc3c(c(NCc4n[nH]c5c4CCC5)n2)CCNC3)cc1 [DDD01246472] | – | – | – | – | – | – | – | – | 4.12 | 0.92 | 92.6 | 97.5 | 0.635 | 99.5 | 2.89 | 98.2 | –
